Test results published in ChEMBL document CHEMBL4020724, “Selective HDAC inhibitors with potent oral activity against leukemia and colorectal cancer: Design, structure-activity relationship and anti-tumor activity study” (Eur J Med Chem, 2017).
Calls of active or inactive are those of the source. The rule behind the calls is not given here.

Assays:
Histone deacetylase 8 = molecular target: T1, Histone deacetylase 8 (Homo sapiens, UniProt Q9BY41); assay: Inhibition of HDAC8 (unknown origin) using Boc-Lys (acetyl)-AMC as substrate incubated for 10 mins followed by substrate addition measured after 30 mins by fluorescence assay
T1 sequence (Q9BY41 whole entry): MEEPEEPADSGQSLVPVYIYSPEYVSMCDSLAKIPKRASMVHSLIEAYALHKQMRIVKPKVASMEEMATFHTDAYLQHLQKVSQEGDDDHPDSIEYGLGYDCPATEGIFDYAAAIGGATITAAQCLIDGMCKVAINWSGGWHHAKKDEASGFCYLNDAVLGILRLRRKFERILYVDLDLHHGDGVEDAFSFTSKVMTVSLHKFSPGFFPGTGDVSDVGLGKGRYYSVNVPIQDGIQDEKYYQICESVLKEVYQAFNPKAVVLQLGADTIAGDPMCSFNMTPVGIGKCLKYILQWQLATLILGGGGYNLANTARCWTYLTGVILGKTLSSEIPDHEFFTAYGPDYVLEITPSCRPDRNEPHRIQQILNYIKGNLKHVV

[1] = molecular target: T2, Protein deacetylase HDAC6 (Homo sapiens, UniProt Q9UBN7); assay: Inhibition of HDAC6 (unknown origin) using Boc-Lys (acetyl)-AMC as substrate incubated for 10 mins followed by substrate addition measured after 30 mins by fluorescence assay
T2 sequence (Q9UBN7 whole entry): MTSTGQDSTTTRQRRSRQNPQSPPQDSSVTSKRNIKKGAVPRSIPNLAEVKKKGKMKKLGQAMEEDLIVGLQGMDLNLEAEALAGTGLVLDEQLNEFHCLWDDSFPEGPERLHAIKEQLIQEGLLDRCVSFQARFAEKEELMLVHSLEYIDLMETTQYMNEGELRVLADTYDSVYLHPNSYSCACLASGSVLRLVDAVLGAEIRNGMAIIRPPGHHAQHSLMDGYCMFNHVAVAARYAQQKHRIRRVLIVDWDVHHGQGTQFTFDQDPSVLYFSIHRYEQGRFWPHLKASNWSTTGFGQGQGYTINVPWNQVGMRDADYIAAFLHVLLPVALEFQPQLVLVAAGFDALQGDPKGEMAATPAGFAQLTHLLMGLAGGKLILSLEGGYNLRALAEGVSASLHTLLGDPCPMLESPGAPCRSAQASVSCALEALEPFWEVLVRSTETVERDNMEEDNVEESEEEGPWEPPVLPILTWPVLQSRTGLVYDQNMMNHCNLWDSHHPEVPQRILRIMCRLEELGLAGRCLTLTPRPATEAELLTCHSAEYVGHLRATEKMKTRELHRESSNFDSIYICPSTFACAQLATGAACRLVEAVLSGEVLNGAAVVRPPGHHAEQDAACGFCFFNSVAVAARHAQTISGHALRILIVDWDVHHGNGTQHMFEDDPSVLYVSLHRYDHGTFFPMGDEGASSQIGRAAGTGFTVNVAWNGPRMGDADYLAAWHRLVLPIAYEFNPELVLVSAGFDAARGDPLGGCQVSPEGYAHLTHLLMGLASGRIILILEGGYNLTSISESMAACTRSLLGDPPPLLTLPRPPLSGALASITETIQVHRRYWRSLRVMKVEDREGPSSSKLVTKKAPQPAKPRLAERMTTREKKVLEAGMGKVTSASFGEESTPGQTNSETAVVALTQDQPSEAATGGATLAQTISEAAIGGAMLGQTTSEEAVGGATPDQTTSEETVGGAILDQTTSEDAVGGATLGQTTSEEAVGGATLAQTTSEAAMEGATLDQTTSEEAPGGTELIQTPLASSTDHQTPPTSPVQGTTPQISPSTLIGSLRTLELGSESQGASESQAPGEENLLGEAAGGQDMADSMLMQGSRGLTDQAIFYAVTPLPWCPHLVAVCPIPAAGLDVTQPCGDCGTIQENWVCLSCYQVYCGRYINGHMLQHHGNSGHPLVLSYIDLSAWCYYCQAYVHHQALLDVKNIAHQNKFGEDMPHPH

Histone deacetylase 1 = Histone deacetylase 1 (Homo sapiens, UniProt Q13547); assay: Inhibition of HDAC1 (unknown origin) using Boc-Lys (acetyl)-AMC as substrate incubated for 10 mins followed by substrate addition measured after 30 mins by fluorescence assay
Chain of Histone deacetylase 1 (Q13547 whole entry): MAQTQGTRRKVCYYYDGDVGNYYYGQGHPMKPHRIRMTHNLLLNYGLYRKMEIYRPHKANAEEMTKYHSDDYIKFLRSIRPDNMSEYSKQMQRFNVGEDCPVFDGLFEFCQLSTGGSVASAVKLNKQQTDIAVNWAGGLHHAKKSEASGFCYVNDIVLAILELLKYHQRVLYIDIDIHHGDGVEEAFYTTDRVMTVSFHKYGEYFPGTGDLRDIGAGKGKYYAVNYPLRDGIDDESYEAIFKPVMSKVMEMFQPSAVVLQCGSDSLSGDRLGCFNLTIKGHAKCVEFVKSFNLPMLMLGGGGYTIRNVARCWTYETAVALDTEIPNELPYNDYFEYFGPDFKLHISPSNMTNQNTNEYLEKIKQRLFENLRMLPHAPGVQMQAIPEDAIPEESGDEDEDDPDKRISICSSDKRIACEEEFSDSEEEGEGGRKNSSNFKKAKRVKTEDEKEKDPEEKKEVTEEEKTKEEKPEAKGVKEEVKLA

Histone deacetylase 2 = Histone deacetylase 2 (Homo sapiens, UniProt Q92769); assay: Inhibition of HDAC2 (unknown origin) using Boc-Lys (acetyl)-AMC as substrate incubated for 10 mins followed by substrate addition measured after 30 mins by fluorescence assay
Chain of Histone deacetylase 2 (Q92769 whole entry): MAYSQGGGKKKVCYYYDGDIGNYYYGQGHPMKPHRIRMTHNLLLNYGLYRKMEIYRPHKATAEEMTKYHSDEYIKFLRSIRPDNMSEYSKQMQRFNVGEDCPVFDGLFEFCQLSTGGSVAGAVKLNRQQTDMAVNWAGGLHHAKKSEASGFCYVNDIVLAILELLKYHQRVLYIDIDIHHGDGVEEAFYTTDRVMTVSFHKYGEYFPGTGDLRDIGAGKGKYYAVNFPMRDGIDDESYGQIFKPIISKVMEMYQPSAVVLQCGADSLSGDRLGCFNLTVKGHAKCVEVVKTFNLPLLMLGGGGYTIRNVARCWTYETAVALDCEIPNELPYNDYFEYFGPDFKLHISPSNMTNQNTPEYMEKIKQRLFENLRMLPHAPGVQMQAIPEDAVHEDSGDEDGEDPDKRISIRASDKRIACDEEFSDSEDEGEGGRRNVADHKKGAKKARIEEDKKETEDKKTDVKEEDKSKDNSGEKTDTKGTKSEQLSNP

Histone deacetylase 3 = Histone deacetylase 3 (Homo sapiens, UniProt O15379); assay: Inhibition of HDAC3 (unknown origin) using Boc-Lys (acetyl)-AMC as substrate incubated for 10 mins followed by substrate addition measured after 30 mins by fluorescence assay
Chain of Histone deacetylase 3 (O15379 whole entry): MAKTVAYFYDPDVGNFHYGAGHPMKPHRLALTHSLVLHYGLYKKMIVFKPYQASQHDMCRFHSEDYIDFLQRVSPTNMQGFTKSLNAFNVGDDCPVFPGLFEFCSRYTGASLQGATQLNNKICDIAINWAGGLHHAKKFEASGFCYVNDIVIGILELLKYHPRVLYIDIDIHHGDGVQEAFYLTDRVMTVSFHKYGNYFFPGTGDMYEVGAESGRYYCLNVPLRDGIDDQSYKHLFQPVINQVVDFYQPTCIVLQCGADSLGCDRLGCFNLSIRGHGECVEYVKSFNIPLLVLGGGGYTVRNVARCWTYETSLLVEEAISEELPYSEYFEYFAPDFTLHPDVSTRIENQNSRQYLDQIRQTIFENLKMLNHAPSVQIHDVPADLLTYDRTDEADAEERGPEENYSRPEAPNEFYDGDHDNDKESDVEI

Histone deacetylase 4 = Histone deacetylase 4 (Homo sapiens, UniProt P56524); assay: Inhibition of HDAC4 (unknown origin) using Boc-Lys (triflouroacetyl)-AMC as substrate incubated for 10 mins followed by substrate addition measured after 30 mins by fluorescence assay
Chain of Histone deacetylase 4 (P56524 whole entry): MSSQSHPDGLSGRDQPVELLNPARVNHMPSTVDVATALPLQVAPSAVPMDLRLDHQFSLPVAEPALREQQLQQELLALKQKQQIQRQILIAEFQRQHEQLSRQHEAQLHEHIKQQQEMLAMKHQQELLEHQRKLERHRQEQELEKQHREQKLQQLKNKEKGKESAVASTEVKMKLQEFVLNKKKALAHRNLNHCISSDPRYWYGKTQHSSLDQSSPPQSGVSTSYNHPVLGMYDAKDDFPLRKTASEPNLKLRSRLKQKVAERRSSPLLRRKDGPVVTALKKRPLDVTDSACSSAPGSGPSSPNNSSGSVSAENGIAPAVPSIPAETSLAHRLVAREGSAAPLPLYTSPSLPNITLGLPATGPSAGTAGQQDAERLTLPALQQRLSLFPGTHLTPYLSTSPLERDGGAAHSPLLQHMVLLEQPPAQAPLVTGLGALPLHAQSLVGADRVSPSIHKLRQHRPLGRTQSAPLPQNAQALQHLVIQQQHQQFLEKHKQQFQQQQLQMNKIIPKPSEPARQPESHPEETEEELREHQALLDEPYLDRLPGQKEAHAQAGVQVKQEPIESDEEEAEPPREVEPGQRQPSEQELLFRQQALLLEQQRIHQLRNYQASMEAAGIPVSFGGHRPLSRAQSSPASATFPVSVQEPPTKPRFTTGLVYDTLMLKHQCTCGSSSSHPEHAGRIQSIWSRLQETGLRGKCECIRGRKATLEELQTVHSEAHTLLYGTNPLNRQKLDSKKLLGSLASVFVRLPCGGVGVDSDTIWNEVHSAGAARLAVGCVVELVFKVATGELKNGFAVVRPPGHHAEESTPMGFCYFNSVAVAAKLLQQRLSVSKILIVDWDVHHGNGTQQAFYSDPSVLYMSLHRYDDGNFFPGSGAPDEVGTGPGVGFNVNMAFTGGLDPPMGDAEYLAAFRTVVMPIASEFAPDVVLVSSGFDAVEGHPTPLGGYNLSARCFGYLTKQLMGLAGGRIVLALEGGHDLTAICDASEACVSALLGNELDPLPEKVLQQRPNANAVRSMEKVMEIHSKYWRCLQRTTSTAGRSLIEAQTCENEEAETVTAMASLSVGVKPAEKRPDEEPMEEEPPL

HCT-116 [2] = assay: Antitumor activity against human HCT116 cells xenografted in BALB/c nude mouse assessed as relative tumor increment ratio at 100 mg/kg/day administered via oral gavage for 16 days measured every 3 days; format: functional
HL-60 [3] = assay: Induction of apoptosis in human HL60 cells assessed as decrease in procaspase-3 level at 1 to 5 uM after 48 hrs by Western blot analysis; format: functional, cell-based
U-937 [4] = assay: Antitumor activity against human U937 cells xenografted in BALB/c nude mouse assessed as tumor growth inhibition at 100 mg/kg/day administered via oral gavage for 13 days measured every 3 days; format: functional; conditions: U-937, po, read-out: TGI
[5] = molecular target: T3, Histone deacetylase (HDAC1 and HDAC2) (Homo sapiens) (UniProt Q13547+Q92769); assay: Inhibition of HDAC1/2 in human HL60 cells assessed as increase in acetylated histone H3 level at 1 to 5 uM after 48 hrs by Western blot analysis; format: cell-based
T3 sequence (Q13547 whole entry, looked up): as the sequence (Q13547 whole entry) above
T3 sequence (Q92769 whole entry, looked up): as the sequence (Q92769 whole entry) above

Mus musculus [6] = assay: Toxicity in BALB/c nude mouse xenografted with human U937 cells assessed as body weight at 100 mg/kg/day administered via oral gavage for 13 days (reference value: 25.39 +/- 1.18 g); format: organism-based; conditions: in vivo, 312 h
HL-60 [7] = assay: Induction of apoptosis in human HL60 cells assessed as increase in cleaved PARP level at 1 to 5 uM after 48 hrs by Western blot analysis; format: functional, cell-based
HCT-116 [8] = assay: Antitumor activity against human HCT116 cells xenografted in BALB/c nude mouse assessed as tumor growth inhibition at 100 mg/kg/day administered via oral gavage for 16 days measured every 3 days; format: functional; conditions: HCT-116, po, read-out: TGI
HL-60 [9] = assay: Induction of apoptosis in human HL60 cells assessed as increase in cleaved caspase-3 level at 1 to 5 uM after 48 hrs by Western blot analysis; format: functional, cell-based
cells = conditions: Homo sapiens, ES-2, 48 h
Description: Antiproliferative activity against human ES2 cells after 48 hrs by MTT assay

[10] = molecular target: T3, Histone deacetylase (HDAC1 and HDAC2) (Homo sapiens); assay: Inhibition of HDAC1/2 in human HL60 cells assessed as increase in acetylated histone H4 level at 1 to 5 uM after 48 hrs by Western blot analysis; format: cell-based
Mus musculus [11] = assay: Toxicity in BALB/c nude mouse xenografted with human HCT116 cells assessed as body weight at 100 mg/kg/day administered via oral gavage for 16 days (reference value: 19.91 +/- 1.26 g); format: organism-based; conditions: in vivo, 384 h
HCT-116 [12] = assay: cells; conditions: Homo sapiens, HCT-116, 48 h
U-937 [13] = assay: cells; conditions: Homo sapiens, U-937, 48 h
Description: Antiproliferative activity against human U937 cells after 48 hrs by MTT assay

U-266 = assay: Antiproliferative activity against human U266 cells after 48 hrs by MTT assay; format: functional, cell-based; conditions: U-266, 48 h
HEL = assay: Antiproliferative activity against HEL cells after 48 hrs by MTT assay; format: functional, cell-based; conditions: Homo sapiens
K562 = assay: cells; conditions: Homo sapiens, K562, 48 h
[14] = Inhibition of class 1 HDAC in human HL60 cells using Boc-Ac-Lys-AMC as substrate incubated for 3 hrs followed by substrate addition measured after 3 hrs by fluorescence assay; format: cell-based; conditions: HL-60, 3 h
Mus musculus [15] = assay: Toxicity in BALB/c nude mouse xenografted with human HCT116 cells assessed as body weight at 50 mg/kg/day administered via oral gavage for 16 days (reference value: 19.91 +/- 1.26 g); format: organism-based; conditions: in vivo, 384 h
HCT-116 [16] = assay: Antitumor activity against human HCT116 cells xenografted in BALB/c nude mouse assessed as relative tumor increment ratio at 50 mg/kg/day administered via oral gavage for 16 days measured every 3 days; format: functional
HL-60 [17] = assay: Induction of apoptosis in human HL60 cells assessed as increase in cleaved PARP level at 5 uM after 48 hrs by Western blot analysis; format: functional, cell-based
HL-60 [18] = assay: Induction of apoptosis in human HL60 cells assessed as increase in cleaved caspase-3 level at 5 uM after 48 hrs by Western blot analysis; format: functional, cell-based
U-937 [19] = assay: Antitumor activity against human U937 cells xenografted in BALB/c nude mouse assessed as relative tumor increment ratio at 50 mg/kg/day administered via oral gavage for 13 days measured every 3 days; format: functional
U-937 [20] = assay: Antitumor activity against human U937 cells xenografted in BALB/c nude mouse assessed as tumor growth inhibition at 50 mg/kg/day administered via oral gavage for 13 days measured every 3 days; format: functional; conditions: U-937, po, read-out: TGI
Mus musculus [21] = assay: Toxicity in BALB/c nude mouse xenografted with human U937 cells assessed as body weight at 50 mg/kg/day administered via oral gavage for 13 days (reference value: 25.39 +/- 1.18 g); format: organism-based; conditions: in vivo, 312 h
HL-60 [22] = assay: Induction of apoptosis in human HL60 cells assessed as decrease in procaspase-3 level at 5 uM after 48 hrs by Western blot analysis; format: functional, cell-based
HCT-116 [23] = assay: Antitumor activity against human HCT116 cells xenografted in BALB/c nude mouse assessed as tumor growth inhibition at 50 mg/kg/day administered via oral gavage for 16 days measured every 3 days; format: functional; conditions: HCT-116, po, read-out: TGI
Mus musculus [24] = assay: Toxicity in BALB/c nude mouse xenografted with human U937 cells assessed as body weight loss at 50 mg/kg/day administered via oral gavage for 13 days; conditions: in vivo, 312 h

With `COc1ccc(C(=O)N[C@@H](Cc2c[nH]c3ccccc23)C(=O)NCCCCCC(=O)Nc2ccc(F)cc2N)cc1` the IC50 (Histone deacetylase 8) was > 100 µM, the IC50 [1] was > 100 µM and the IC50 (Histone deacetylase 1) was 0.511 µM. The IC50 (Histone deacetylase 2) was 0.908 µM, the IC50 (Histone deacetylase 3) was 0.11 µM and the IC50 (Histone deacetylase 4) was > 100 µM.

For `COc1ccc(C(=O)N[C@@H](Cc2c[nH]c3ccccc23)C(=O)NCc2ccc(C(=O)Nc3ccccc3N)cc2)cc1`, the T/C (HCT-116 [2]) was 59%, the Activity (HL-60 [3]) was “Active” and the inhibition in vivo at 100 mg/kg/day (U-937 [4]) was 51%. For the same compound, the inhibition [5] was “Active”, the Activity (Mus musculus [6]) was 25.04 g and the IC50 (Histone deacetylase 1) was 0.0206 µM. The Activity (HL-60 [7]) was “Active”, the IC50 (Histone deacetylase 2) was 0.157 µM and the inhibition in vivo at 100 mg/kg/day (HCT-116 [8]) was 49%. For the same compound, the IC50 (Histone deacetylase 3) was 0.138 µM, the Activity (HL-60 [9]) was “Active” and the IC50 (cells) was > 20 µM. For the same compound, the inhibition [10] was “Active” and the Activity (Mus musculus [11]) was 21.59 g.

Compound `O=C(CCCCCCC(=O)Nc1ccccc1)NO` [VORINOSTAT] has an Activity (Mus musculus [11]) of 21.23 g.

For `COc1ccc(C(=O)N[C@@H](Cc2c[nH]c3ccccc23)C(=O)NCCCCCC(=O)Nc2cc(-c3cccs3)ccc2N)cc1`, the IC50 (Histone deacetylase 8) was > 100 µM, the IC50 [1] was > 100 µM and the IC50 (Histone deacetylase 1) was 0.048 µM. The IC50 (HCT-116 [12]) was > 20 µM, the IC50 (U-937 [13]) was > 20 µM and the IC50 (Histone deacetylase 2) was 0.337 µM. For the same compound, the IC50 (Histone deacetylase 3) was 3.57 µM, the IC50 (U-266) was > 20 µM and the IC50 (cells) was > 20 µM. For the same compound, the IC50 (Histone deacetylase 4) was > 100 µM.

For `COc1ccc(C(=O)N[C@@H](Cc2c[nH]c3ccccc23)C(=O)NCc2ccc(C(=O)Nc3cc(-c4ccccc4)ccc3N)cc2)cc1`, the Activity (HL-60 [3]) was “inactive”, the inhibition [5] was “Active” and the IC50 (Histone deacetylase 1) was 0.0584 µM. For the same compound, the Activity (HL-60 [7]) was “inactive”, the IC50 (HCT-116 [12]) was > 20 µM and the IC50 (U-937 [13]) was > 20 µM. The IC50 (Histone deacetylase 2) was 0.311 µM, the IC50 (Histone deacetylase 3) was 30.9 µM and the Activity (HL-60 [9]) was “inactive”. For the same compound, the IC50 (U-266) was > 20 µM, the IC50 (cells) was > 20 µM and the IC50 (HEL) was > 20 µM. For the same compound, the inhibition [10] was “Active” and the IC50 (K562) was 14 µM.

With `COc1ccc(C(=O)N[C@@H](Cc2c[nH]c3ccccc23)C(=O)NCc2ccc(C(=O)Nc3cc(-c4cccs4)ccc3N)cc2)cc1` the IC50 (Histone deacetylase 1) was 0.0588 µM, the IC50 (HCT-116 [12]) was > 20 µM and the IC50 (U-937 [13]) was > 20 µM. For the same compound, the IC50 (Histone deacetylase 2) was 0.32 µM, the IC50 (Histone deacetylase 3) was 8.01 µM and the IC50 (U-266) was > 20 µM. For the same compound, the IC50 (cells) was > 20 µM and the IC50 (HEL) was > 20 µM.

For `Nc1ccccc1NC(=O)c1ccc(CNC(=O)OCc2cccnc2)cc1` [ENTINOSTAT], the IC50 [14] was 0.62 µM, the Activity (Mus musculus [15]) was 18.87 g and the T/C (HCT-116 [16]) was 46%. The Activity (HL-60 [17]) was “Active”, the Activity (HL-60 [18]) was “Active” and the T/C (U-937 [19]) was 32%. For the same compound, the inhibition in vivo at 50 mg/kg/day (U-937 [20]) was 60%, the Activity (Mus musculus [21]) was 19.77 g and the Activity (HL-60 [22]) was “Active”. For the same compound, the IC50 (cells) was > 20 µM, the inhibition in vivo at 50 mg/kg/day (HCT-116 [23]) was 62% and the Activity (Mus musculus [24]) was “Toxic”.
